# Results: patent US20090170900A1, “DOSING REGIMEN FOR WEIGHT LOSS” (UTI LIMITED PARTNERSHIP, priority 2005, published 2009)
# Like-named read-outs stand apart in the source and are kept apart here.
# Legend:
# CB1 = CB1 (Homo sapiens, UniProt P21554); conditions: cited from earlier work
# [1] = Food intake after a single intraperitoneal injection in prefed, moderately obese male Lewis rats (Example 1); conditions: for cumulative food intake: AM-251 5 mg/kg i.p., Ensure Plus
# Procedure: Vanilla-flavoured Ensure Plus (Ross Laboratories, Saint-Laurent, Quebec, Canada) was used as food on account of its palatability, and to reduce the risk of spillage. […] Food and water were presented in inverted glass bottles that attached to the outside of the cage. Animals were habituated to handling and testing procedures 3 weeks prior to testing on liquid diet.
# The initial food presented between 1600 and 1700 h (prefeed) was designed to produce partial satiety as previously described in C.
# Food bottles were put back on at 1800 h. Food intake measurements were taken daily as well as at 1900, 2000, and 2100 h.
# [2] = Daily food intake after a single dose of 1.25 or 2.5 mg/kg (Example 2); assay type: in vivo, rat
# Procedure: (§1) Food intake and weight measurements were taken daily. […] Animals were assigned into vehicle, 1.25 or 2.5 mg/kg conditions via a counterbalance design.
# [3] = Body weight gain with daily or twice-weekly intragastric injection (Example 4); assay type: in vivo, rat; conditions: low doses by the intragastric route, 28 days
# From the text: (§2) Each of the rats was assigned to one of five groups. […] These groups were compared to the group with daily injection of vehicle (n=8).
# [4] = cited from earlier work
# [5] = Weight gain or loss after a single dose of 1.25 or 2.5 mg/kg (Example 2); assay type: in vivo, rat; conditions: for weight gain or loss: over 10 days
# Procedure: as §1
# [6] = Daily food intake with administration every 5 days (Example 3); conditions: 5 mg/kg every 5 days
# Procedure: (§3) Food was available for 17 h each day starting at 16:00 h. Food and water were presented in inverted glass bottles that were attached to the outside of the cage in order to minimize spillage. […] Food intake and body weight measurements were recorded daily.
# [7] = Body weight change with administration every 5 days (Example 3); conditions: 5 mg/kg every 5 days, p<0.05
# Procedure: as §3
# [8] = 5 and 20 mg doses; human trials; cited from earlier work
# [9] = animal model of temporal lobe epilepsy; cited from earlier work
# [10] = cited from earlier work; remark: listed apart in the source
# [11] = determined from behavioral tests; cited from earlier work
# [12] = mice; cited from earlier work
# [13] = Two-flavored conditioned aversion test (Example 4); assay type: in vivo, rat; conditions: for short-term percentage preference for the primary flavor associated with drug delivery: 15 min; for percentage daily preference for the flavor associated with drug delivery: 17 hr
# From the text: Another objective was to determine whether the animals were responding negatively to the drug as determined by the use of a two-flavored conditioned aversion test in which the drug was repeatedly paired with one flavor of liquid diet while the vehicle injection was paired with the other flavor. There were ten training trials before the test procedure was done so the rats had sufficient time to make associations between flavors and internal consequences. This test procedure involved giving the rats two bottles, containing the liquid diets flavored with chocolate and strawberry, and determining the individual rat's preference for one or the other of the flavors. A conditioned aversion was established if the rat chose against the flavor associated with the drug injections.
# as §2
# This conditioning procedure was done for 10 exposures before the actual conditioned aversion test was done on day 33. This aversion test was done by allowing each rat exposure for 17 hrs to two bottles, one containing chocolate-flavored and the other containing strawberry-flavored liquid diet. No drugs or vehicles were injected on this day. […] Moreover, the rats were forced to taste both flavors for three or four licks before the diets were made freely available to them so the rats were fully aware that two flavors were present. […] The 17-hour tests allowed repeated association between the internal consequences of the drug and the taste of the drug associated primary flavor.
# [14] = rats injected daily (intragastric)
# Sequence of CB1 (P21554 whole entry, species assumed): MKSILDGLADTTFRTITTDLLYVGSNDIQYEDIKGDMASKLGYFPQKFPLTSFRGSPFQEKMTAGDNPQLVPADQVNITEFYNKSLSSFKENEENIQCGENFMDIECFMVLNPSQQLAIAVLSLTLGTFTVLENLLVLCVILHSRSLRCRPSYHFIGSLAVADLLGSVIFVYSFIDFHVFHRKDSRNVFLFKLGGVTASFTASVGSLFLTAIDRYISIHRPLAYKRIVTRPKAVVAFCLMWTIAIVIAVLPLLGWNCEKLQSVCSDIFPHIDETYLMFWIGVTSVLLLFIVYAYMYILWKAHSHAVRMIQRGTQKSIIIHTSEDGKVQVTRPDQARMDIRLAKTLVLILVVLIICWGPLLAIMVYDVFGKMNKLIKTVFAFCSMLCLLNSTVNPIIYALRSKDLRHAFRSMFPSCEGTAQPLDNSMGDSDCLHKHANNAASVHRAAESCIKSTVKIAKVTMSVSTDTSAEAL
smiles,measurement,setting,value
"Cc1c(C(=O)NN2CCOCC2)nn(-c2ccc(Cl)cc2Cl)c1-c1ccc(I)cc1 [AM 281, N-(Morpholin-1-yl)-1-(2,4-dichlorophenyl)-5-(4-iodophenyl)-4-methyl-1H-pyrazole-3-carboxamide]",CB1 antagonist activity and selectivity,CB1,"potent, CB1 selective antagonists"
"Cc1c(C(=O)NN2CCCCC2)nn(-c2ccc(Cl)cc2Cl)c1-c1ccc(I)cc1 [AM-251, N-(piperidin-1-yl)-5-(4-iodophenyl)-1-(2,4-dichlorophenyl)-4-methyl-1H-pyrazole-3-carboxamide]",daily food intake,"[1]; 5 mg/kg i.p., day of injection",36.7 ± 3.3 g
same,daily food intake,"[1]; 5 mg/kg i.p., last day of significant reduction (day before the next drugs were given)",47.0 ± 2.5 g
same,duration of significant reduction in daily food intake,"[1]; 5 mg/kg i.p., starting on the day of injection",6 days
same,cumulative food intake,[1]; 1 h of testing,no intake
same,cumulative food intake,[1]; 2 h of testing,1.3 ± 0.8 g
same,cumulative food intake,[1]; 3 h of testing,3.3 ± 1.4 g
same,"reductions in food intake, dose relation",[2]; 1.25 mg/kg or 2.5 mg/kg single dose,dose dependent
same,duration of significant reductions in food intake after the day of administration,"[2]; 2.5 mg/kg single dose, significant starting the day of administration, p<0.001",4 days
same,effect on body weight gain,[3],significant slowing in weight gain
same,time of repeated daily administration after which changes in food intake were non-significant,"[4]; 3 mg/kg daily, mouse",8 days
same,effect of stopping daily doses,[4]; approximately 10 mg/kg daily,significant rebound hyperphagia and a rapid return in body weight
same,weight gain or loss,[5]; 1.25 mg/kg single dose,2.5 ± 2.0 g
same,weight gain or loss,[5]; 2.5 mg/kg single dose,-5.1 ± 2.1 g
same,duration of weight loss compared with duration of reduced food intake,"[5]; lowest dose, 1.25 mg/kg",the duration of weight loss exceeded the duration of reduced food intake
same,days on which food intake was significantly reduced,[6],"days 1-4, and days 6-15"
same,time that reductions in food intake continued after the last treatment,[6],five
same,duration of significant reductions in food intake after the first dose,"[6]; vs vehicle, p<0.05",4 days
same,period of significant differences in weight change vs vehicle,[7]; Newman-Keuls multiple comparison test,day 1 to day 24
same,period of significant reductions in weight gain,"[7]; unpaired t-test, last administration on day 11",day 1 until day 27
CN=C(NS(=O)(=O)c1ccc(Cl)cc1)N1C[C@H](c2ccccc2)C(c2ccc(Cl)cc2)=N1 [SLV-319],CB1 antagonist activity and selectivity,CB1,"potent, CB1 selective antagonists"
"Cc1c(C(=O)NN2CCCCC2)nn(-c2ccc(Cl)cc2Cl)c1-c1ccc(Cl)cc1 [rimonabant, N-(piperidin-1-yl)-5-(4-chlorophenyl)-1-(2,4-dichlorophenyl)-4-methyl-1H-pyrazole-3-carboxamide]",most common side effects,[8],"nausea, dizziness, arthralgia and diarrhea"
same,frequency of protracted seizures,[9],significantly higher frequency of protracted seizures
same,effect of stopping daily doses,[10]; approximately 10 mg/kg daily,significant rebound hyperphagia and a rapid return in body weight
same,time of treatment after which the anorectic effect waned,"[10]; continued treatment, rats",5 days
same,effect on body weight gain,[3],significant slowing in weight gain
same,predicted half-life,[11],22 h
same,damage in response to an inflammatory stimulus vs vehicle-treated controls,[12],significantly more damage
same,short-term percentage preference for the primary flavor associated with drug delivery,[13]; [14],48%
same,short-term percentage preference for the primary flavor associated with drug delivery,[13]; rats injected twice-weekly (intragastric),44%
same,percentage daily preference for the flavor associated with drug delivery,[13]; rats injected biweekly (intragastric),50%
same,percentage daily preference for the flavor associated with drug delivery,[13]; [14],67%
